Reference: US9221827B2, “Antimicrobial compounds and methods of making and using the same” (Melinta Therapeutics, Inc., priority 2011, dated 2015)

System: Escherichia coli strain ATCC25922
Experiment: standard microdilution assay to determine minimum inhibitory concentrations (MICs)
Assay type: cell-based
Description: The in vitro activity of the compounds of the present invention can be determined. Antimicrobial testing is typically performed to determine the minimum inhibitory concentration (MIC). Minimum inhibitory concentrations (MICs) are determined by the microdilution method in a final volume of 100 μl according to protocols outlined by The Clinical and Laboratory Standards Institute (CLSI). Performance standards for reference strains are assessed within the same experimental design to maintain quality control. See, for example, Clinical Laboratory Standards Institute: Methods for dilution antimicrobial susceptibility tests for bacteria that grow aerobically M7-A8. Approved Standard-Eighth Edition. Wayne, Pa.: CLSI; December 2008; and Clinical Laboratory Standards Institute: Performance Standards for Antimicrobial Susceptibility Testing M100-S20; Approved Standard-Twentieth Edition. Wayne, Pa.: CLSI; June 2010.
The compounds of the present invention were tested for antimicrobial activity. […] The compounds were run against Escherichia coli strain ATCC25922 using a standard microdilution assay to determine minimum inhibitory concentrations (MICs). […] A “N/A” means that data is unavailable. It will be recognized by one skilled in the art that the compounds can be assessed against other bacterial organisms and that the presentation of data for activity against Escherichia coli is illustrative and in no way is intended to limit the scope of the present invention. The compounds of the present invention can be assayed against a range of other microorganisms depending upon the performance activity desired to be gathered. Furthermore, the “+”, “−”, and “N/A” representation and the selection of a cutoff value of 16 micrograms/ml is also illustrative and in no way is intended to limit the scope of the present invention.

[1] = Escherichia coli strain ATCC25922, standard microdilution assay
[2] = Escherichia coli strain ATCC25922, microdilution

Row | Compound | E. coli ATCC25922 MIC [1] | E. coli ATCC25922 MIC [2]
1 | C[C@H](N)CCCc1cc(F)c(F)c(-c2cc3cn(-c4ccc(CNCCCNC(=N)N)cc4)c(=O)nc3[nH]2)c1 [Compound 463] | + (a “+” indicates that the compound has an MIC value of 16 micrograms/ml or less) | 
2 | C[C@@H](CNCc1ccc(-n2cc3cc(-c4cc(CCCCN)cc(OC(F)(F)F)c4)[nH]c3nc2=O)cc1)CNC(=N)N [Compound 35] |  | + (a “+” indicates that the compound has an MIC value of 16 micrograms/ml or less)
3 | N=C(N)NCCCNCc1ccc(-n2cc3cc(-c4cc(CCC5(CN)CCC5)ccc4F)[nH]c3nc2=O)cc1 [Compound 116] |  | + (a “+” indicates that the compound has an MIC value of 16 micrograms/ml or less)
4 | CC(N)CCCc1cc(OC(F)(F)F)c(Cl)c(-c2cc3cn(-c4ccc(C(C)NCCCNC(=N)N)cc4)c(=O)nc3[nH]2)c1 (stereo not drawn) [Compound 282] |  | + (a “+” indicates that the compound has an MIC value of 16 micrograms/ml or less)
5 | N=C(N)NCCCNCc1ccc(-c2c[nH]c(NC(=O)Nc3cc(C(F)F)ccc3OCCCN)nc2=O)cc1 [Compound 188] |  | + (a “+” indicates that the compound has an MIC value of 16 micrograms/ml or less)
6 | N=C(N)NCCCNCc1ccc(-n2cc3cc(-c4cc(OC(F)(F)F)cc(C(F)(F)CCCN)c4)[nH]c3nc2=O)cc1 [Compound 112] |  | + (a “+” indicates that the compound has an MIC value of 16 micrograms/ml or less)
7 | CCC[C@H](NCCCNC(=N)N)c1ccc(-n2cc3cc(-c4cc(CCC[C@H](C)N)cc(SC(F)(F)F)c4)[nH]c3nc2=O)cc1 [Compound 416] | + (a “+” indicates that the compound has an MIC value of 16 micrograms/ml or less) | 
8 | CC(N)CCCc1cc(SC(F)(F)F)cc(-c2cc3cn(-c4ccc(C(C)NCCCNC(=N)N)cc4)c(=O)nc3[nH]2)c1 (stereo not drawn) [Compound 231] |  | + (a “+” indicates that the compound has an MIC value of 16 micrograms/ml or less)
9 | COc1cccc(OCCCN)c1NC(=O)Nc1nc(=O)c(-c2ccc(CNCCCNC(=N)N)cc2)c[nH]1 [Compound 185] |  | − (a “−” indicates that the compound has an MIC value greater than 16 micrograms/ml)
10 | C[C@@H](CN)OCc1cc(-c2cc3cn(-c4ccc(CNCCCNC(=N)N)cc4)c(=O)nc3[nH]2)cc(C(F)(F)F)c1 [Compound 314] |  | + (a “+” indicates that the compound has an MIC value of 16 micrograms/ml or less)
11 | CC(N)CCCc1cc(CC(F)(F)F)cc(-c2cc3cn(-c4ccc(C(C)NCCCNC(=N)N)cc4)c(=O)nc3[nH]2)c1 (stereo not drawn) [Compound 340] | + (a “+” indicates that the compound has an MIC value of 16 micrograms/ml or less) | 
12 | CC(N)CCCc1cc(Cl)c(F)c(-c2cc3cn(-c4ccc(C(NCCCNC(=N)N)C(=O)O)cc4)c(=O)nc3[nH]2)c1 (stereo not drawn) [Compound 495] |  | + (a “+” indicates that the compound has an MIC value of 16 micrograms/ml or less)
13 | CC(C)c1cc(CCC[C@H](C)N)cc(-c2cc3cn(-c4ccc([C@H](C)NCCCNC(=N)N)cc4)c(=O)nc3[nH]2)c1F [Compound 447] | + (a “+” indicates that the compound has an MIC value of 16 micrograms/ml or less) | 
14 | C[C@H](CNCc1ccc(-n2cc3cc(-c4cc(CCCCN)cc(OC(F)(F)F)c4)[nH]c3nc2=O)cc1)CNC(=N)N [Compound 34] |  | + (a “+” indicates that the compound has an MIC value of 16 micrograms/ml or less)
15 | COC(=O)NCCCCc1cc(-c2cc3cn(-c4ccc(CNCCCNC(=N)N)cc4)c(=O)nc3[nH]2)cc(OC(F)(F)F)c1OC [Compound 45] |  | + (a “+” indicates that the compound has an MIC value of 16 micrograms/ml or less)
16 | C[C@H](N)C/C=C/c1cc(Cl)c(F)c(-c2cc3cn(-c4ccc(CNCCCNC(=N)N)cc4)c(=O)nc3[nH]2)c1 [Compound 312] |  | + (a “+” indicates that the compound has an MIC value of 16 micrograms/ml or less)
17 | N=C(N)NCCCNCc1ccc(-n2cc3cc(-c4cc(OC(F)(F)F)cc(C(F)CCCN)c4)[nH]c3nc2=O)cc1 (stereo not drawn) [Compound 58] |  | + (a “+” indicates that the compound has an MIC value of 16 micrograms/ml or less)
18 | CC(N)CCCc1cc(OC(F)F)c(F)c(-c2cc3cn(-c4ccc(C(C)NCCCNC(=N)N)cc4)c(=O)nc3[nH]2)c1 (stereo not drawn) [Compound 299] |  | + (a “+” indicates that the compound has an MIC value of 16 micrograms/ml or less)
19 | C[C@H](N)CCCc1cc(-c2cc3cn(-c4ccc(CNCCCNC(=N)N)cc4)c(=O)nc3[nH]2)cc(F)c1F [Compound 465] | + (a “+” indicates that the compound has an MIC value of 16 micrograms/ml or less) | 
20 | C[C@H](N)CCCc1cc(-c2cc3cn(-c4ccc(CN(C)CCCNC(=N)N)cc4)c(=O)nc3[nH]2)cc(C(F)(F)F)c1 [Compound 339] | + (a “+” indicates that the compound has an MIC value of 16 micrograms/ml or less) | 

Row | Compound | E. coli ATCC25922 MIC [1] | E. coli ATCC25922 MIC [2]
21 | N=C(N)NCCCNCc1ccc(-n2cc3cc(-c4cc(CCCCN)cc(-n5ccnn5)c4)[nH]c3nc2=O)cc1 [Compound 55] |  | + (a “+” indicates that the compound has an MIC value of 16 micrograms/ml or less)
22 | N=C(N)NCCCNCc1ccc(-n2cc3cc(-c4cc(CCCCN)cc(CO)c4C(F)(F)F)[nH]c3nc2=O)cc1 [Compound 246] |  | + (a “+” indicates that the compound has an MIC value of 16 micrograms/ml or less)
23 | N=C(N)NCCCNCc1ccc(-n2cc3cc(-c4cc(CCC5(CN)CC5)cc(C(F)(F)F)c4)[nH]c3nc2=O)cc1 [Compound 319] |  | + (a “+” indicates that the compound has an MIC value of 16 micrograms/ml or less)
24 | C[C@H](N)c1ccc(-n2cc3cc(-c4cc(CCCC(C)(C)N)cc(SC(F)(F)F)c4)[nH]c3nc2=O)cc1 [Compound 371] | − (a “−” indicates that the compound has an MIC value greater than 16 micrograms/ml) | 
25 | N=C(N)NCCCNCc1ccc(-n2cc3cc(-c4cc(C5CCC(CN)CC5)cc(C(F)(F)F)c4)[nH]c3nc2=O)cc1 (mixture of isomers) [Compound 429] | + (a “+” indicates that the compound has an MIC value of 16 micrograms/ml or less) | 
26 | NCCCCc1cc(SC(F)(F)F)cc(-c2cc3cn(-c4ccc(CNCCCN=C(N)N)c(F)c4)c(=O)nc3[nH]2)c1 [Compound 68] |  | + (a “+” indicates that the compound has an MIC value of 16 micrograms/ml or less)
27 | CCC(N)CCCc1cc(SC(F)(F)F)cc(-c2cc3cn(-c4ccc(C(C)NCCCNC(=N)N)cc4)c(=O)nc3[nH]2)c1 (stereo not drawn) [Compound 381] | + (a “+” indicates that the compound has an MIC value of 16 micrograms/ml or less) | 
28 | N=C(N)NCCCNCc1ccc(-n2cc3cc(-c4cccc(CCCCN)c4F)[nH]c3nc2=O)cc1 [Compound 5] |  | + (a “+” indicates that the compound has an MIC value of 16 micrograms/ml or less)
29 | CC(N)CCCc1cc(Cl)c(F)c(-c2cc3cn(-c4ccc(CNCCCNC(=N)N)cc4)c(=O)nc3[nH]2)c1 (stereo not drawn) [Compound 268] |  | + (a “+” indicates that the compound has an MIC value of 16 micrograms/ml or less)
30 | CC(N)CCCc1cc(SC(F)(F)F)cc(-c2cc3cn(-c4ccc(C(NCCCNC(=N)N)C(=O)O)cc4)c(=O)nc3[nH]2)c1 (stereo not drawn) [Compound 503] |  | − (a “−” indicates that the compound has an MIC value greater than 16 micrograms/ml)
31 | N=C(N)NCCCNCc1ccc(-n2cc3cc(-c4cc(C(O)CCCN)ccc4Cl)[nH]c3nc2=O)cc1 (stereo not drawn) [Compound 51] |  | + (a “+” indicates that the compound has an MIC value of 16 micrograms/ml or less)
32 | NCCCCc1cc(Cl)c(Cl)c(-c2cc3cn(-c4ccc(CNCCCN=C(N)N)cc4)c(=O)nc3[nH]2)c1 [Compound 62] |  | + (a “+” indicates that the compound has an MIC value of 16 micrograms/ml or less)
33 | C[C@H](N)CCCc1cc(SC(F)F)cc(-c2cc3cn(-c4ccc(CNCCCNC(=N)N)cc4)c(=O)nc3[nH]2)c1 [Compound 305] |  | + (a “+” indicates that the compound has an MIC value of 16 micrograms/ml or less)
34 | N=C(N)NCCCNCc1ccc(-n2cc3cc(-c4cc(CCC(O)CN)ccc4F)[nH]c3nc2=O)cc1 (stereo not drawn) [Compound 258] |  | + (a “+” indicates that the compound has an MIC value of 16 micrograms/ml or less)
35 | N=C(N)NCC(F)(F)CNCc1ccc(-n2cc3cc(-c4cc(CCCCN)cc(OC(F)(F)F)c4)[nH]c3nc2=O)cc1 [Compound 30] |  | + (a “+” indicates that the compound has an MIC value of 16 micrograms/ml or less)
36 | CC(CN)SCc1cc(SC(F)(F)F)cc(-c2cc3cn(-c4ccc(CNCCCNC(=N)N)cc4)c(=O)nc3[nH]2)c1 (stereo not drawn) [Compound 336] | + (a “+” indicates that the compound has an MIC value of 16 micrograms/ml or less) | 
37 | C[C@H](N)CCCc1cc(F)c(F)c(-c2cc3cn(-c4ccc([C@H](C)NCCCNC(=N)N)cc4)c(=O)nc3[nH]2)c1 [Compound 462] | + (a “+” indicates that the compound has an MIC value of 16 micrograms/ml or less) | 
38 | CC(C)(N)CCCc1cc(SC(F)(F)F)cc(-c2cc3cn(-c4ccc(CN)cc4)c(=O)nc3[nH]2)c1 [Compound 335] | + (a “+” indicates that the compound has an MIC value of 16 micrograms/ml or less) | 
39 | N=C(N)NCCCNCc1ccc(-n2cc3cc(-c4cc(Br)c(CC(O)CCN)c(OC(F)(F)F)c4)[nH]c3nc2=O)cc1 (stereo not drawn) [Compound 43] |  | + (a “+” indicates that the compound has an MIC value of 16 micrograms/ml or less)
